ChEMBL document CHEMBL1201862, “PubChem BioAssay data set” (2004)
The source made the active and inactive calls.

Target: Cytochrome P450 2C9 (Homo sapiens, UniProt P11712)
Details: not given

Chain of Cytochrome P450 2C9 (P11712 whole entry): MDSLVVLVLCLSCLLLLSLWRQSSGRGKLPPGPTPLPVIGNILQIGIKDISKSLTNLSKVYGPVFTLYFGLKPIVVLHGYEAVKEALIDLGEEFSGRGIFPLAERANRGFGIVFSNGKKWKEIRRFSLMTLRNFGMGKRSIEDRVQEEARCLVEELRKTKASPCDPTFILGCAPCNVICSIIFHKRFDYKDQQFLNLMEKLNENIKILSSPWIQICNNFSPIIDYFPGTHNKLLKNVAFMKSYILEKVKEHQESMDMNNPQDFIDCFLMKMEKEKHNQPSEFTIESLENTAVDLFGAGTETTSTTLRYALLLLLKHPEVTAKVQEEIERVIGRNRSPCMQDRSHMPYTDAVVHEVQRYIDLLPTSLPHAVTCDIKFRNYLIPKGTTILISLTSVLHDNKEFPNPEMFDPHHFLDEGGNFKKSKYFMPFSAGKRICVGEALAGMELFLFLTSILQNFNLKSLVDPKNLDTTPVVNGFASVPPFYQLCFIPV

Row | SMILES | AC50
1 | COc1ccc(/C=C\C(=O)Nc2ccccc2C(=O)O)cc1OC | 15.8 µM (inconclusive)
2 | Cc1ccc(-c2csc(NC(=S)NC(=O)/C=C/c3ccco3)n2)cc1 | 0.282 µM (inconclusive)
3 | Cc1ccc(C(=O)NC2CCCCCC2)cc1N1CCCC1=O | 25.1 µM (inconclusive)
4 | C=CCC(C)(NCc1ccccc1)c1ccco1 (stereo unspecified) | 0.0355 µM (inconclusive)

Target: T1, Rac GTPase-activating protein 1 (Homo sapiens, UniProt Q9H0H5)
T1 sequence (Q9H0H5 whole entry): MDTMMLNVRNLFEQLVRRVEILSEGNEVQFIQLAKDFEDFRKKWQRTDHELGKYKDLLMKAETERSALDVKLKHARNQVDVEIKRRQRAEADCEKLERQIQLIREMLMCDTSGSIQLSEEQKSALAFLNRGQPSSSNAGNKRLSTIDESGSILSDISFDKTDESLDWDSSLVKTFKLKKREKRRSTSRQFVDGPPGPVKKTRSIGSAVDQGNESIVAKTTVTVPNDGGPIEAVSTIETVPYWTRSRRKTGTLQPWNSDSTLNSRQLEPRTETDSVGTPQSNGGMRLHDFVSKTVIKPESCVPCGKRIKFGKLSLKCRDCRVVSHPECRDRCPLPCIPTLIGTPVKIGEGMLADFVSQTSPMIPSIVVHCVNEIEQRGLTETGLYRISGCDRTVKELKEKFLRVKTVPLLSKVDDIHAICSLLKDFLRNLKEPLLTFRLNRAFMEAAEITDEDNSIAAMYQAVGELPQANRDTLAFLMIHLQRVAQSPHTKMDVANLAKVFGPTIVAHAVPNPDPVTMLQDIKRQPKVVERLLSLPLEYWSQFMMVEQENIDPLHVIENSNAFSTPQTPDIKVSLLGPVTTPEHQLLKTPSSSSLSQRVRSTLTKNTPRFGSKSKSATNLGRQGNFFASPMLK
Assay: MgcRacGAP GTPase-activating activity inhibitors, confirmation, biochemical, ADP Hunter fluorescence, primary and confirmatory (AID 624330)
Type: functional
Details: not given

Row | SMILES | IC50
5 | CCOC(=O)N/N=C/c1ccc(N2CCOCC2)s1 | 52.6 µM (active)
6 | O=C(/C=C/c1ccc(O)c(O)c1)OC(Cc1ccc(O)c(O)c1)C(=O)O (stereo unspecified) | 35 µM (active)
7 | Nc1ccc(Sc2ccc(N)cc2)cc1 [4,4'-THIODIANILINE] | 13.2 µM (active)

Target: T2, Cytochrome P450 1A2 (Homo sapiens, UniProt P05177);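 also: PubChem cytochrome P450 panel assay, CYP1A2 panel member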
T2 sequence (P05177 whole entry): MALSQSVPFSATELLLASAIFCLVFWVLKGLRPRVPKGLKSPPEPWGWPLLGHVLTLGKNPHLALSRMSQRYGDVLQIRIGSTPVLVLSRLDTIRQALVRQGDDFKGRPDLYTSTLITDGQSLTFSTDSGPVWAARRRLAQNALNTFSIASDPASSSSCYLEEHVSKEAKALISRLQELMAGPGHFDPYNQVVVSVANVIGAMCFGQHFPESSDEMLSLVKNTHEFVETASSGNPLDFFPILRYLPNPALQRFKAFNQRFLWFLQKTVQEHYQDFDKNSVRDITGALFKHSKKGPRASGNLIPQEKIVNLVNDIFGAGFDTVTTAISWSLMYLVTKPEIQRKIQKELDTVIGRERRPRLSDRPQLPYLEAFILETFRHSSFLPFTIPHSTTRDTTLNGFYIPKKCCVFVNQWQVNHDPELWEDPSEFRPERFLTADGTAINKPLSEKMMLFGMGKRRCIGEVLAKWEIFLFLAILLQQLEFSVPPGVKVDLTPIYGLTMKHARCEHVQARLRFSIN
Details: not given

Row | SMILES | AC50
8 | O=C1C(Cc2ccccc2)NC(=S)N1c1ccccc1 (stereo unspecified) | 2.24 µM (inconclusive)
9 | COc1ccc(-c2nc3cnc(N4CCNCC4)nc3n(CCC#N)c2=O)cc1 | 15.8 µM (inconclusive)
10 | COc1ccc(/C=C\C(=O)Nc2ccccc2C(=O)O)cc1OC | 39.8 µM (inconclusive)
11 | O=C(NCCCN1CCCC1=O)Nc1ccc(F)c(Cl)c1 | 22.4 µM (inconclusive)

System: H4
Assay: Luminescence Cell-Based Dose Response HTS to Identify Activators of 5'UTR Stem-Loop Driven Prion Protein mRNA Translation in H4 Neuroglioblastoma Cells. [Related pubchem assays: 1829 (Project Summary), 1814 (Primary HTS)]
Type: functional
Details: Homo sapiens

Row | SMILES | EC50
12 | CCOC(=O)c1ccc(-c2ccc(/C=N/NC(=O)c3cncc(Br)c3)o2)cc1 | 117 µM (active)

System: not listed separately
Assay: HEp-2 cell cytotoxicity, dose response, cytotoxicity control for RSV inhibitor project, HTS (AID 2410)
Type: functional
Details: human respiratory syncytial virus

Row | SMILES | CC50
13 | O=C(Nc1ccc(-c2csc(Nc3cccc(C(F)(F)F)c3)n2)cc1)c1ccccc1 | 17.2 µM (active)

Target: Cytochrome P450 3A4 (Homo sapiens, UniProt P08684);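 also: CYP3A4 tested as one member of a cytochrome P450 panel screen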
Details: not given

Chain of Cytochrome P450 3A4 (P08684 whole entry): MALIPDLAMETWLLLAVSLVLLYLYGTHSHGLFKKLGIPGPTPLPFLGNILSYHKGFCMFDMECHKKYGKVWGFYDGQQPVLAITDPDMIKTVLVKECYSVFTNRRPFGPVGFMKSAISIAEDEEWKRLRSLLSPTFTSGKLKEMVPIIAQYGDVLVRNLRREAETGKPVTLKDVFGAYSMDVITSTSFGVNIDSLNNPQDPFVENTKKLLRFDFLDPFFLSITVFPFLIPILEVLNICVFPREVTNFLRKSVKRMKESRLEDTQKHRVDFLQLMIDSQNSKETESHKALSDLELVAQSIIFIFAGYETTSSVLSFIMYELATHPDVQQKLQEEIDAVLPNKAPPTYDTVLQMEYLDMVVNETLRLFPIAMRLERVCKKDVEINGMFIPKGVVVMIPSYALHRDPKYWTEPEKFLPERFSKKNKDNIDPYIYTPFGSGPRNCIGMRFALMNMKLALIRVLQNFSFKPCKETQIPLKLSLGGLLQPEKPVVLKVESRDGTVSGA

Row | SMILES | AC50
14 | Nc1nc(SCc2ccc([N+](=O)[O-])cc2)c2ncn([C@@H]3O[C@@H](CO)[C@@H](O)[C@H]3O)c2n1 | 15.8 µM (inconclusive)
15 | O=C1C(Cc2ccccc2)NC(=S)N1c1ccccc1 (stereo unspecified) | 2.24 µM (inconclusive)
16 | COc1ccc(-c2nc3cnc(N4CCNCC4)nc3n(CCC#N)c2=O)cc1 | 12.6 µM (inconclusive)
17 | COc1ccc(/C=C\C(=O)Nc2ccccc2C(=O)O)cc1OC | 39.8 µM (inconclusive)
18 | Cc1ccc(-c2csc(NC(=S)NC(=O)/C=C/c3ccco3)n2)cc1 | 15.8 µM (inconclusive)
19 | CCOc1ccc(N(C(C)C(=O)NC(C)CC)S(C)(=O)=O)cc1 (stereo unspecified) | 14.1 µM (inconclusive)
20 | O=C(NCCCN1CCCC1=O)Nc1ccc(F)c(Cl)c1 | 28.2 µM (inconclusive)
21 | N#Cc1ccc(CN2CCC3(CC2)CCN(C(=O)c2ccncc2)CC3)cc1 | 12.6 µM (inconclusive)
22 | CC(C)C(=O)Nc1cc2c(cc1C(=O)c1ccccc1)OCCO2 | 22.4 µM (inconclusive)
23 | Cc1ccc(C(=O)NC2CCCCCC2)cc1N1CCCC1=O | 25.1 µM (inconclusive)
24 | C=CCC(C)(NCc1ccccc1)c1ccco1 (stereo unspecified) | 15.8 µM (inconclusive)

System: not listed separately
Assay: Luminescence Cell-Based Dose Retest to Confirm Inhibitors of Cancer Stem Cells. [Related pubchem assays (depositor defined):AID2717, AID2721]
Type: functional
Details: Homo sapiens

Row | SMILES | AC50
25 | O=C(Nc1ccc(-c2csc(Nc3cccc(C(F)(F)F)c3)n2)cc1)c1ccccc1 | 1.54 µM (active)

Target: Cytochrome P450 2C19 (Homo sapiens, UniProt P33261)
Assay: Cytochrome panel assay with activity outcomes. Panel member name: p450-cyp2c19 Compounds with AC50 equal or less than 10 uM are considered active
Type: functional
Details: read-out: AC50

Chain of Cytochrome P450 2C19 (P33261 whole entry): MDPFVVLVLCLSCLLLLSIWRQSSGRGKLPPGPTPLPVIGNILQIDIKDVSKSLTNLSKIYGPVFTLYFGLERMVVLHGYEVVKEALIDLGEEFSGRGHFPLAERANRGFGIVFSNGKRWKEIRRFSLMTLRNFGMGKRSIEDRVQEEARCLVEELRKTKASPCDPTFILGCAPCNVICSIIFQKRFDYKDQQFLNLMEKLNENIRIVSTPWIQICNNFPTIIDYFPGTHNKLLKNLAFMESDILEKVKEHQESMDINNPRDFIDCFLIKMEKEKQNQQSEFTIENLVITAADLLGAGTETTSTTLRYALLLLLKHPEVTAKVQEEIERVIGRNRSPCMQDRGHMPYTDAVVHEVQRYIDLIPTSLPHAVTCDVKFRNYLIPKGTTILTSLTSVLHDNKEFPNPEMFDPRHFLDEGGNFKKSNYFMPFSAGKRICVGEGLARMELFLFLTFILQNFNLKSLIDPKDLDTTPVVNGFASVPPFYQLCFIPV

Row | SMILES | AC50
26 | CCOc1ccc(N(C(C)C(=O)NC(C)CC)S(C)(=O)=O)cc1 (stereo unspecified) | 7.94 µM (inconclusive)
27 | O=C(NCCCN1CCCC1=O)Nc1ccc(F)c(Cl)c1 | 39.8 µM (inconclusive)

System: not listed separately
Assay: inhibitors of intracellular T. cruzi replication, confirmation, NIH3T3 host cells, beta-gal luminescence (AID 2044);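 also: intracellular parasites grown in NIH/3T3 mouse fibroblasts as host cells; luminescent beta-galactosidase reporter signal from transgenic T. cruzi replicating inside host cells; inhibitors lower the luminescence signal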
Type: functional, cell-based
Details: not given

Row | SMILES | EC50
28 | O=C(Nc1ccc(-c2csc(Nc3cccc(C(F)(F)F)c3)n2)cc1)c1ccccc1 | 859 nM (active)

System: not listed separately
Assay: cytotoxicity toward NIH3T3 fibroblasts, dose response, counter-screen, cell-based, ATP luminescence, mouse fibroblasts (AID 2010);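 also: cells exposed to compound for about 90 hours before reading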
Type: functional
Details: not given

Row | SMILES | EC50
29 | O=C(Nc1ccc(-c2csc(Nc3cccc(C(F)(F)F)c3)n2)cc1)c1ccccc1 | 7.93 µM (active)

Target: T3, Zinc finger protein mex-5 (Caenorhabditis elegans, UniProt Q9XUB2)
T3 sequence (Q9XUB2 whole entry): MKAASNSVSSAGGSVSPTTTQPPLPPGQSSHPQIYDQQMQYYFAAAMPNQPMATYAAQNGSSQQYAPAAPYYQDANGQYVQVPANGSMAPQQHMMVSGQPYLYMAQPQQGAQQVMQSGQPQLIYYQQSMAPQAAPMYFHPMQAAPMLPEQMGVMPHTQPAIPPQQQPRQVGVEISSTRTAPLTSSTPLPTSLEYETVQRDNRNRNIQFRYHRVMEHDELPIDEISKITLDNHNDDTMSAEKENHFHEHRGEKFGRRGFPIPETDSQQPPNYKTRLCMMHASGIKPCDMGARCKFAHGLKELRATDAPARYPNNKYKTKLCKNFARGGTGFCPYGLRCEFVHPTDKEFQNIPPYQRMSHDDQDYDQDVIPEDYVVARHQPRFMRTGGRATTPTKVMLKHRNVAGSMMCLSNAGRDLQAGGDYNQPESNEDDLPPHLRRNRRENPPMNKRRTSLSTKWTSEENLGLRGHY
Assay: MEX-5/TCR-2 RNA interaction inhibitors, dose response, biochemical, C. elegans, fluorescence polarization (AID 1960)
Details: not given

Row | SMILES | EC50
30 | O=C(/C=C/c1ccc(O)c(O)c1)OC(Cc1ccc(O)c(O)c1)C(=O)O (stereo unspecified) | 8.75 µM (active)

Target: T4, RNA-binding protein pos-1 (Caenorhabditis elegans, UniProt G5EF15)
T4 sequence (G5EF15 whole entry): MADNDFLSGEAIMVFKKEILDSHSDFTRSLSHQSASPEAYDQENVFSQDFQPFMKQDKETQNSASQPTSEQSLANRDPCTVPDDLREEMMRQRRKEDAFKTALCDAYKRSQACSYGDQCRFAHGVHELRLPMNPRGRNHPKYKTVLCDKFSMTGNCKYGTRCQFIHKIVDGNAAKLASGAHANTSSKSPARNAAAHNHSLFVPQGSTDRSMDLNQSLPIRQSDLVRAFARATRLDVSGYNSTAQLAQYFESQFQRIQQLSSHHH
Assay: inhibitors of POS-1/mex-3 RNA binding, dose response, biochemical, fluorescence polarization (AID 1964);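 also: purified POS-1 fused to maltose binding protein made in E. coli; potency of compounds blocking POS-1 binding to fluorescent RNA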
Details: not given

Row | SMILES | EC50
31 | O=C(/C=C/c1ccc(O)c(O)c1)OC(Cc1ccc(O)c(O)c1)C(=O)O (stereo unspecified) | 13.6 µM (active)
